Consider 6 compounds from patent US8193378B2, “2H-chromene compound and derivative thereof” (Astellas Pharma Inc., priority 2008, dated 2012).

Series [1] has as its target T1, human S1P1 (Homo sapiens, UniProt P21453).
T1 construct: expressed in transfected cells; membrane fraction used
In words: Ca2+ influx assay using human S1P1 expressing cell (Test Example 1, Method 2). The format is cell-based. The settings on record: method 2, Ca2+ influx, human S1P1 expressing CHO cell (values with *); read-out: A: EC50, in vitro S1P1 agonist action (value with *). The procedure:
Evaluation of In Vitro S1P1 Receptor Agonist Activity in Biological Body
(Method 2) Method for Evaluation of Receptor Agonist Action by Ca^2+ Influx Assay Using Human S1P1 Expressing Cell
The in vitro S1P1 agonist action of the compound of the present invention was evaluated by the increase in the Ca^2+ concentration in a human S1P1 expressing cell. A cDNA encoding a human S1P1 was cloned from a human colorectal cDNA library and introduced to an expression vector pcDNA3.1 to construct a S1P1-pcDNA3.1. Then, by Lipofectamine 2000 (GIBCO), the S1P1-pcDNA3.1 was transfected into a CHO cell, and cultured in a Ham's F-12 culture medium containing 10% fetal bovine serum, 100 U/mL penicillin, 100 μg/mL streptomycin, and 1 mg/mL G418 disulfate, to obtain a stable, G418-resistant strain. The cultured human S1P1 expressing cells were isolated in a 1 mM EDTA.2Na-containing PBS and suspended in a Ham's F-12 culture medium containing 10% fetal bovine serum, 100 U/mL penicillin, and 100 μg/mL streptomycin. This cell suspension was dispensed to a 96-well plate at 50000 cells/well, and cultured at a CO2 incubator (5% CO2, 37° C.) overnight. The culture medium was replaced with a calcium-sensitive fluorescent reagent (FLIPR (registered trademark) calcium 3 assay kit, molecular device)-containing loading buffer (Hank's balance salt solution, 20 mM HEPES, 2.5 mM probenecid) and left stand at a CO2 incubator (5% CO2, 37° C.) for 1 hour. The plate was set at a Functional Drug Screening System FDSS6000 (Hamamatsu Photonics K. K.), and persistently measured 124 times every 1.02 second at an excitation wavelength of 480 nm. The test compound (final concentration 10^−12 to 10^−5 M) was added at the same time as the 12th measurement, and the change in the Ca^2+ concentration in cells was evaluated by the change in the fluorescent strength. For evaluation of the human S1P1 agonist action of the compound of the present invention and the comparative compound, the percentages with the rate of a maximum reaction to make the increase in the Ca^2+ concentration in cells saturated after the addition of the compound being set at 100% and the rate of the increase in the Ca^2+ concentration in cells by the addition of a vehicle alone being set at 0% were used, a non-linear regression curve was plotted, and a concentration to cause an agonist action operating 50% of the maximum reaction was defined as an EC50 value (nM).

The subject of series [2] is peripheral blood lymphocytes. In words: Reduction of number of peripheral blood lymphocytes in rat (Test Example 2). Format: in vivo. The settings on record: Lymphocyte, male Lewis rats, oral, 24 hours after administration, read-out: B: ED50 24 h, reduction of number of lymphocytes in peripheral blood. The procedure:
Evaluation of Reduction of Number of Peripheral Blood Lymphocytes in Rat
The action on the peripheral blood lymphocytes were evaluated using rats. 6- to 10-week-old male Lewis rats (Japan Charles River Laboratories Japan, Inc.) were randomly divided into groups (n=3), and the compound of the present invention was suspended in 0.5% methyl cellulose-containing distilled water, and orally administered with a sonde. At 4 hours or 24 hours after administration, 0.2 ml of blood was collected from the ocular fundus under ether anesthesia. To the blood sample were immediately added EDTA.4K and heparin to prevent clotting, and the number of the lymphocytes in blood was measured with an automatic hematocyte analyzer (Sysmex Corp.; XT-2000i). For the reduction of the number of the lymphocytes in peripheral blood by the compound of the present invention, the percentage with the number of the lymphocytes in groups administered with 0.5% methyl cellulose-containing distilled water being set at 100%, as performed at the same time, were used, and the dose to cause 50% reduction of the number of the lymphocytes in the peripheral blood by administration of the compound of the present invention was defined as an ED50 value (mg/kg).

Series [3] is described as follows: Infrequent pulse expression using awake rats (Test Example 5). The format is in vivo, rat. The following applies: awake male Lewis rats, intravenous infusion for 10 minutes, 1 mg/kg administration. As for the experimental part:
Evaluation of Infrequent Pulse Expression Using Awake Rats Male Lewis rats were anesthetized with isoflurane inhalation and a polyethylene tube was intubated into the femoral artery and vein. It was connected to a blood pressure measuring amplifier•heart rate unit via a pressure transducer from an arterial line, and the arterial blood pressure and the heart rate were measured. Intravenous line from Vehicle (10% HCO40/tween80/PEG, 90% saline) and the present compounds were intravenously infused persistently at a rate of 1 mL/kg/min for 10 minutes. The measurement data were read (for a total evaluation time of 20 minutes) from a chart of the values before administration, at 1, 2, 5, and 10 min after the start of constant infusion, and at 1, 2, 5, and 10 min after the completion of infusion, and thus, for the heart rate and the blood pressure before administration, the decrease rates (%) before and after infusion were calculated.

T1 sequence (P21453 whole entry): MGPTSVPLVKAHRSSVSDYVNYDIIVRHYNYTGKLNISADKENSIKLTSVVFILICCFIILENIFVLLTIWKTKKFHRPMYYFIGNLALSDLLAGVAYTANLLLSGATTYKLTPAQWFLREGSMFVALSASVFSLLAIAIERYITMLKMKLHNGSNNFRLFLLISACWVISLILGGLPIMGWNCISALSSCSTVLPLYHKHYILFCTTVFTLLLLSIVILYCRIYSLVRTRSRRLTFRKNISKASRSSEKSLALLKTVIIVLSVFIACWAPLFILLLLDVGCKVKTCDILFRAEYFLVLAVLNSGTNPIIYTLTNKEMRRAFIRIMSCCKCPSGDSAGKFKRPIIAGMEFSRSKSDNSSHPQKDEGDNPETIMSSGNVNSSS

Consider `Cl.O=C(O)[C@H]1CCCN(CC2=Cc3c(F)cc(OCc4ccc(OCC(F)(F)F)c(C(F)(F)F)c4)cc3OC2)C1` [Ex 236], for which the concentration giving a half-maximal response (EC50) in series [1] worked out at 32 nM. For the same compound, the ED50 in series [2] came to 0.1 mg/kg.

For the compound `CS(=O)(=O)NC(=O)[C@@H]1CCCN(CC2=Cc3c(F)cc(OCc4ccc(OC(CF)CF)c(C(F)(F)F)c4)cc3OC2)C1.Cl` [Ex 152], the EC50 in series [1] stood at 6.3 nM. In addition, the ED50 in series [2] was found to be 0.28 mg/kg.

As for `Cl.O=C(O)[C@H]1CCCN(CC2=Cc3c(F)cc(OCc4ccc(OC(CF)CF)c(C(F)(F)F)c4)cc3OC2)C1` [Ex 230], the EC50 in series [1] came to 7 nM. The 50% effective dose (ED50) in series [2] was found to be 0.19 mg/kg. In series [3], the “influence on the heart rate and the blood pressure” value is given as “does not have an influence”; the infrequent pulse expression entry is “not expressed”.

Consider `C[C@H](Oc1ccc(COc2ccc3c(c2)OCC(CN2CCC[C@@H](C(=O)O)C2)=C3)cc1C(F)(F)F)C(F)(F)F.Cl` [Ex 156, (3R)-1-[(7-{[3-(trifluoromethyl)-4-{[(2S)-1,1,1-trifluoropropan-2-yl]oxy}benzyl]oxy}-2H-chromen-3-yl)methyl]piperidine-3-carboxylic acid hydrochloride], for which, in series [1], the EC50 is 16 nM. For the same compound, in series [2], the ED50 was 0.086 mg/kg.

For `Cl.O=C(O)C1CCN(CC2=Cc3ccc(OCc4ccc(OCC(F)(F)F)c(C(F)(F)F)c4)cc3OC2)CC1` [Ex 171], in series [1], the 50% effective concentration (EC50) was 9 nM. Besides, the ED50 in series [2] came out at 0.14 mg/kg.

As to `C[C@H](Oc1ncc(COc2ccc3c(c2)OCC(CN2CCC=C(C(=O)O)C2)=C3)cc1Cl)C(F)(F)F.Cl` [Ex 183], in series [1], the concentration for a half-maximal effect (EC50) came to 5.5 nM. Moreover, the median effective dose (ED50) in series [2] was 0.21 mg/kg.
